Drawing on ChEMBL document CHEMBL4806969, “Modulators of mas-related g-protein receptor x4 and related products and methods” (2020), this text covers IC50 for 106 compounds.

This assay has as its target Mas-related G-protein coupled receptor member X4 (Homo sapiens, UniProt Q96LA9). Briefly: Antagonist activity at human MRGPRX4 expressed in HEK cells incubated in dark for 1 hr at 37 degree C and then incubated for 30 mins at room temperature in presence of […] bilirubin by HTRF assay. The format is functional, cell-based.

pIC50: −log10 of the molar value.

Mas-related G-protein coupled receptor member X4, sequence (Q96LA9 whole entry): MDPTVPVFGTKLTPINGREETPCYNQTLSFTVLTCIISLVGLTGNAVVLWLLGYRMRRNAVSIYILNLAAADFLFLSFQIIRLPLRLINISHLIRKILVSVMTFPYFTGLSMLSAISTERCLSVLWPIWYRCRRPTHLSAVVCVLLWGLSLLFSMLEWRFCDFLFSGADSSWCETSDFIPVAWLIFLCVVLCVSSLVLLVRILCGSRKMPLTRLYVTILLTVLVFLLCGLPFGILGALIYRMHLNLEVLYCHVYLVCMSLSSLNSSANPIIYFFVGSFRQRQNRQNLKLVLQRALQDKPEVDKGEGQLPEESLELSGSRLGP

Take `O=C(O)c1cccc(COc2ccc(OC(F)(F)F)cc2Cl)c1`: the pIC50 is more than 7.00.

In the case of `Cc1cc(COc2ccc(OC(F)(F)F)cc2Cl)cc(C(=O)O)c1`, the pIC50 is more than 7.00.

Turning to `O=C(O)c1cccc(COc2ccc(C(F)(F)F)cc2F)c1`, the negative-log IC50 (pIC50) is more than 7.00.

As for `Cc1ccc(OCc2cccc(C(=O)O)c2)c(Cl)c1Cl`, the negative-log IC50 (pIC50) was more than 7.00.

For the compound `O=C(O)c1cccc(COc2ccc(Cl)c(F)c2Cl)c1`, the negative-log IC50 (pIC50) is more than 7.00.

Consider `O=C(O)c1cc(F)cc(COc2ccc(Cl)c(Cl)c2Cl)c1`, for which the pIC50 is more than 7.00.

On to `O=C(O)c1cccc(COc2ccc(OC(F)(F)F)c(Cl)c2)n1`, for which the negative logarithm of the IC50 (pIC50) is more than 7.00.

On to `O=C(O)c1cccc(CNc2ccc(C(F)(F)F)cc2Cl)c1`, for which the pIC50 was more than 7.00.

`O=C(O)c1cccc(COc2ccc(-c3ccccc3)cc2)c1`: the pIC50 was less than 5.60.

With `N#Cc1cc(COc2ccc(C(F)(F)F)cc2Cl)cc(C(=O)O)c1`, the negative logarithm of the IC50 (pIC50) was more than 7.00.

For `O=C(O)c1cccc(COc2ccc(Cl)c(F)c2)c1`, the pIC50 is more than 7.00.

As to `O=C(O)c1cccc(COc2ccc(Cl)cc2C(F)(F)F)c1F`, the negative-log IC50 (pIC50) was more than 7.00.

Regarding `O=C(O)c1cccc(COc2ccc(C(F)F)cc2Cl)c1`, the pIC50 was more than 7.00.

As to `O=C(O)c1cccc(COc2ccc(C(F)(F)F)cc2C(F)(F)F)c1`, the pIC50 was more than 7.00.

With `CCCc1cc(COc2ccc(C(F)(F)F)cc2Cl)nc(C(=O)O)c1`, the negative-log IC50 (pIC50) was more than 7.00.

For `O=C(O)c1cc(C2CC2)cc(COc2ccc(C(F)(F)F)cc2Cl)n1`, the negative-log IC50 (pIC50) is more than 7.00.

Take `COC(=O)c1cccc(COc2ccc3ccccc3c2)n1`: the negative logarithm of the IC50 (pIC50) was more than 7.00.

`Fc1cc(COc2ccc(C(F)(F)F)cc2Cl)cc(-c2nnn[nH]2)c1`: the pIC50 is more than 7.00.

In the case of `COc1cc(COc2ccc(C(F)(F)F)cc2Cl)cc(C(=O)O)c1`, the negative-log IC50 (pIC50) was more than 7.00.

`N#Cc1cc(COc2ccc(C(F)(F)F)cc2Cl)nc(C(=O)O)c1`: the negative-log IC50 (pIC50) was more than 7.00.

Turning to `N#Cc1cc(COc2ccc(OC(F)(F)F)cc2Cl)cc(C(=O)O)c1`, the pIC50 is more than 7.00.

For `O=C(O)c1cccc(COc2ccc(Oc3ccccc3)cc2)c1`, the pIC50 was less than 5.60.

As for `Cc1cc(COc2ccc(C(F)(F)F)c(Cl)c2)cc(C(=O)O)c1`, the pIC50 is more than 7.00.

Regarding `O=C(O)c1cc(F)cc(COc2ccc3ccccc3c2)c1`, the pIC50 is more than 7.00.

For `O=C(O)c1cccc(COc2ccc(Cl)c(Cl)c2F)c1`, the negative-log IC50 (pIC50) is more than 7.00.

In the case of `N#Cc1cc(COc2ccc(Cl)c(Cl)c2Cl)cc(C(=O)O)c1`, the pIC50 was more than 7.00.

As for `O=C(O)c1c(F)ccc(COc2ccc(C(F)(F)F)cc2Cl)c1F`, the pIC50 was more than 7.00.

As for `O=C(O)c1cc(Cl)cc(COc2ccc(Cl)cc2Cl)c1`, the negative-log IC50 (pIC50) was more than 7.00.

On to `Cc1cc(C(F)(F)F)ccc1OCc1cc(C#N)cc(C(=O)O)c1`, for which the negative logarithm of the IC50 (pIC50) was more than 7.00.

As for `O=C(O)c1cccc(COc2cccc(C(F)F)c2)c1`, the pIC50 is less than 5.60.

Consider `CC(Oc1ccc(C(F)(F)F)cc1Cl)c1cccc(C(=O)O)c1` (stereo unspecified), for which the negative logarithm of the IC50 (pIC50) is more than 7.00.

Turning to `O=C(O)c1cccc(COc2ccc3sccc3c2Cl)c1F`, the negative logarithm of the IC50 (pIC50) was more than 7.00.

As to `COC(=O)c1cccc(COc2ccc(Cl)cc2Cl)c1`, the pIC50 is less than 5.60.

For `N#Cc1ccc(OCc2cccc(C(=O)O)c2)cc1`, the pIC50 is less than 5.60.

In the case of `O=C(O)c1cccc(COc2ccc(Cl)cc2Cl)c1Cl`, the pIC50 was more than 7.00.

For the compound `O=C(O)c1cccc(COc2ccc(F)cc2Cl)c1`, the pIC50 is less than 5.60.

Turning to `FC(F)(F)Oc1ccc(OCc2cccc(-c3nnn[nH]3)c2)cc1Cl`, the pIC50 was more than 7.00.

Turning to `Fc1cc(OCc2cccc(-c3nnn[nH]3)c2)ccc1C(F)(F)F`, the pIC50 is more than 7.00.

Take `CC(C)(C)c1ccccc1OCc1cccc(C(=O)O)c1`: the negative logarithm of the IC50 (pIC50) was less than 5.60.

Take `CCOC(=O)c1cccc(COc2ccc(C(F)(F)F)cc2Cl)n1`: the pIC50 was more than 7.00.

On to `O=C(O)c1cccc(Oc2ccc([N+](=O)[O-])cc2Cl)c1`, for which the pIC50 was less than 5.60.

For `Cc1cc(COc2ccc(Cl)c(Cl)c2Cl)nc(C(=O)O)c1`, the pIC50 is more than 7.00.

In the case of `c1cc(COc2ccc3ccccc3c2)cc(-c2nnn[nH]2)c1`, the pIC50 is more than 7.00.

`FC(F)(F)c1ccc(OCc2cccc(-c3nnn[nH]3)n2)c(Cl)c1`: the negative-log IC50 (pIC50) was more than 7.00.

Regarding `O=C(O)c1cc(Cl)cc(COc2ccc(C(F)(F)F)cc2Cl)c1`, the negative-log IC50 (pIC50) is more than 7.00.

`O=C(O)Cc1cccc(COc2ccc(Cl)cc2Cl)c1`: the negative logarithm of the IC50 (pIC50) is less than 5.60.

As to `O=C(O)c1cccc(COc2ccc(OC(F)(F)F)cc2Cl)n1`, the negative-log IC50 (pIC50) was more than 7.00.

Consider `O=C(O)c1cccc(NC(=O)c2cccc(COc3ccc(C(F)(F)F)cc3Cl)c2)c1`, for which the pIC50 was less than 5.60.

`Cc1cc(C(F)(F)F)ccc1OCc1cc(F)cc(C(=O)O)c1`: the pIC50 is more than 7.00.

As to `O=C(O)c1nc(COc2ccc(C(F)(F)F)c(Cl)c2)ccc1F`, the pIC50 was more than 7.00.

Consider `Cc1cc(COc2ccc3ccccc3c2)nc(C(=O)O)c1`, for which the negative-log IC50 (pIC50) was more than 7.00.

For `O=C(O)c1cc(Br)cc(COc2ccc(C(F)(F)F)cc2Cl)c1`, the pIC50 is more than 7.00.

With `Cc1cc(C(F)(F)F)ccc1OCc1cccc(-c2nnn[nH]2)c1`, the pIC50 is more than 7.00.

Consider `N#CCc1ccccc1OCc1cccc(C(=O)O)c1`, for which the pIC50 is less than 5.60.

As for `Fc1ccc(COc2ccc(C(F)(F)F)cc2Cl)cc1-c1nnn[nH]1`, the negative logarithm of the IC50 (pIC50) is more than 7.00.

Take `Cc1cc(COc2ccc(C(F)(F)F)cc2Cl)nc(C(=O)O)c1`: the pIC50 was more than 7.00.

For `O=C(O)c1cc(F)cc(COc2ccc(Cl)cc2Cl)c1`, the pIC50 is more than 7.00.

`O=C(O)c1cccc(COc2ccc(OC(F)(F)F)c(Cl)c2)c1`: the pIC50 was more than 7.00.

Take `Cc1cc(CNc2ccc(C(F)(F)F)cc2Cl)nc(C(=O)O)c1`: the pIC50 was more than 7.00.

For the compound `CC(C)c1ccccc1OCc1cccc(C(=O)O)c1`, the pIC50 was less than 5.60.

`Fc1ccc(OCc2cccc(-c3nnn[nH]3)c2)c(Cl)c1`: the pIC50 was more than 7.00.

As to `O=C(O)c1cccc(COc2ccc(C(F)(F)F)c(Cl)c2)n1`, the pIC50 is more than 7.00.

Take `O=C(O)c1cccc(CNc2ccc(C(F)(F)F)cc2Cl)n1`: the negative-log IC50 (pIC50) is more than 7.00.

On to `FC(F)(F)Oc1ccc(OCc2cccc(-c3nnn[nH]3)c2)c(Cl)c1`, for which the negative-log IC50 (pIC50) is more than 7.00.

As for `Cc1cc(C(F)(F)F)ccc1OCc1cccc(C(=O)O)c1`, the negative logarithm of the IC50 (pIC50) is more than 7.00.

`O=C(O)c1cccc(COc2ccc(C(F)(F)F)c(F)c2)c1`: the pIC50 was more than 7.00.

Take `O=C(O)c1cccc(COc2ccccc2Cl)c1`: the pIC50 was less than 5.60.

As for `COc1ccc(C(=O)O)cc1COc1ccc(Cl)cc1Cl`, the negative-log IC50 (pIC50) was less than 5.60.

Consider `O=C(O)c1cc(COc2ccc(C(F)(F)F)cc2Cl)cc(C2CC2)c1`, for which the negative logarithm of the IC50 (pIC50) is more than 7.00.

Regarding `O=C(O)c1cccc(COc2ccc(C(F)(F)F)c(Cl)c2)c1F`, the pIC50 is more than 7.00.

On to `O=C(O)c1cccc(COc2ccc3ccccc3c2)c1F`, for which the negative-log IC50 (pIC50) is more than 7.00.

`Cc1cc(COc2ccc3ccccc3c2)cc(C(=O)O)c1`: the pIC50 is more than 7.00.

For `O=C(O)c1cccc(COc2cccc3c2OC(F)(F)O3)c1`, the negative-log IC50 (pIC50) was less than 5.60.

Turning to `CCc1cc(COc2ccc3ccccc3c2)nc(C(=O)O)c1`, the negative logarithm of the IC50 (pIC50) was more than 7.00.

With `O=C(O)c1cc(Br)cc(COc2ccc(C(F)(F)F)cc2Cl)n1`, the pIC50 is more than 7.00.

Consider `Cc1cc(Cl)ccc1OCc1cccc(-c2nnn[nH]2)c1`, for which the negative logarithm of the IC50 (pIC50) is more than 7.00.

As to `O=C(O)c1cccc(COc2ccc3ccccc3c2)n1`, the pIC50 is more than 7.00.

As for `COC(=O)c1cccc(COc2ccc3scnc3c2)c1`, the pIC50 was less than 5.60.

`Cc1cc(C(F)(F)F)ccc1OCc1cccc(C(=O)O)n1`: the negative-log IC50 (pIC50) is more than 7.00.

As to `O=C(O)CNC(=O)c1cccc(COc2ccc(C(F)(F)F)cc2Cl)c1`, the negative-log IC50 (pIC50) was more than 7.00.

`O=C(O)c1cccc(COc2ccc(C(F)(F)F)cc2)c1F`: the negative logarithm of the IC50 (pIC50) is more than 7.00.

As to `O=C(O)c1cccc(COc2ccc3c(c2)C(=O)CCC3)c1`, the negative logarithm of the IC50 (pIC50) is less than 5.60.

`Cc1cc(OCc2cccc(C(=O)O)c2)ccc1C(F)(F)F`: the negative-log IC50 (pIC50) was less than 5.60.

For `Fc1c(COc2ccc(C(F)(F)F)cc2Cl)cccc1-c1nnn[nH]1`, the pIC50 was more than 7.00.

`CCc1cc(COc2ccc(Cl)c(Cl)c2Cl)nc(C(=O)O)c1`: the negative logarithm of the IC50 (pIC50) is more than 7.00.

Take `COCCCNC(=O)c1cccc(COc2ccc(C(F)(F)F)cc2Cl)c1`: the negative logarithm of the IC50 (pIC50) is more than 7.00.

In the case of `Cc1noc(-c2cccc(COc3ccc(C(F)(F)F)cc3Cl)c2)n1`, the pIC50 is more than 5.60.

On to `COc1cc(COc2ccc(Cl)cc2Cl)cc(C(=O)O)c1`, for which the pIC50 was more than 7.00.

`CC(=O)c1ccc(OCc2cccc(C(=O)O)c2)cc1`: the negative-log IC50 (pIC50) was less than 5.60.

As to `N#Cc1cc(COc2ccc(C(F)(F)F)c(Cl)c2)cc(C(=O)O)c1`, the negative logarithm of the IC50 (pIC50) is more than 7.00.

As to `Cc1cc(COc2ccc(Cl)cc2Cl)cc(C(=O)O)c1`, the negative logarithm of the IC50 (pIC50) is more than 7.00.

With `NC(=O)c1cccc(COc2cccc(Cl)c2Cl)c1`, the pIC50 is less than 5.60.

For `FC(F)(F)c1ccc(OCc2cccc(-c3nnn[nH]3)c2)cc1Cl`, the pIC50 was more than 7.00.

With `O=C(O)c1cccc(COc2ccc3ccccc3c2Cl)c1F`, the pIC50 was more than 7.00.

`O=C(O)c1cccc(COc2ccc(Cl)c(Cl)c2Cl)c1F`: the pIC50 was more than 7.00.

In the case of `O=C(O)c1cccc(COc2ccccc2Cl)c1F`, the negative logarithm of the IC50 (pIC50) is less than 5.60.

Turning to `O=C(O)c1cccc(COc2ccc(OC(F)(F)F)cc2Cl)c1F`, the negative logarithm of the IC50 (pIC50) is more than 7.00.

In the case of `Cc1cc(Cl)ccc1OCc1cccc(C(=O)O)c1F`, the pIC50 is more than 7.00.

For `COC(=O)c1cccc(COc2ccc(C(F)(F)F)cc2Cl)n1`, the pIC50 is more than 7.00.

Take `O=C(O)c1cccc(COc2c(Cl)cccc2Cl)c1`: the negative logarithm of the IC50 (pIC50) was less than 5.60.

Regarding `O=C(O)c1cccc(COc2ccccc2C(F)F)c1`, the negative-log IC50 (pIC50) was less than 5.60.

Take `Cc1cc(OCc2cccc(C(=O)O)c2)ccc1OC(F)(F)F`: the pIC50 is less than 5.60.

In the case of `Cc1ccc(COc2ccc(Cl)cc2Cl)cc1C(=O)O`, the pIC50 was less than 5.60.

For the compound `O=C(c1ccc(COc2ccc(C(F)(F)F)cc2Cl)cc1)N1CC2(COC2)C1`, the negative-log IC50 (pIC50) is more than 5.60.

Take `O=C(O)c1nc(COc2ccc(C(F)(F)F)cc2Cl)ccc1F`: the pIC50 was more than 7.00.

Regarding `O=C(O)c1cccc(COc2ccc(C(F)(F)F)cc2Br)c1`, the pIC50 is more than 7.00.

What is called pIC50 is −log10 of the IC50, conventionally taken in molar units.
